47 compounds from the supplement of paper PMC3974653 can be followed below.

Counter-ions that a name gives are not always drawn.

This test has as its system MTT (mouse pheochromocytoma). The experiment in a line: IC50 of cell viability (ATP content). The settings on record: (24 or 48 h). Summed up:
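MTT mouse pheochromocytoma cells were seeded into white 1536-well plates at 5 µl per well from a 200,000 cells/ml suspension in DMEM with 5% FBS and 1% horse serum, then cultured overnight at 37°C, 5% CO2. A pintool added 23 nl of library compound in DMSO at 8 concentrations (final 0.5 nM to 46 µM) for 24 or 48 hrs, and CellTiter-Glo ATP luminescence was read after 15 minutes. Signals were scaled so that positive-control wells equalled 100% and DMSO wells 0%. IC50 values were derived by fitting a four-parameter logistic curve.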

In the case of `CC1=C(NNC(=O)C1)C2=CC=C(N\N=C(\C#N)C#N)C=C2` [SIMENDANUM], the “IC50 of cell viability” value was greater than 46 µM.
The result for `Nc1c[n+](N2CCOCC2)no1` [SIN-1 chloride] reads greater than 46 µM; that for `CSCC[C@H](NC(=O)[C@@H](Cc1ccc(O[S+](=O)([O-])O)cc1)NC(=O)[C@H](N)CC(=O)O)C(=O)NCC(=O)N[C@@H](Cc1c[nH]c2ccccc12)C(=O)N[C@H](CCSC)C(=O)N[C@H](CC(=O)O)C(=O)N[C@@H](Cc1ccccc1)C(N)=O` [SINCALIDE], greater than 46 µM; that for `CC(C)(C)C(=O)Oc1ccc([S+](=O)([O-])Nc2ccccc2C(=O)NCC(=O)[O-])cc1.O.O.O.O.[Na+]` [SIVELESTAT SODIUM HYDRATE], greater than 46 µM.
Regarding `Cc1c[nH]c2ccccc12` [SKATOLUM], the “IC50 of cell viability” value was greater than 46 µM.
`C=CCN1C[C@H](C)N([C@H](c2ccc(C(=O)N(CC)CC)cc2)c2cccc(OC)c2)C[C@H]1C` [SNC 80]: the “IC50 of cell viability” value is greater than 46 µM.
The result for `CCCC(=O)[O-]` [SODIUM BUTYRATE] reads greater than 46 µM; that for `F[Si-2](F)(F)(F)(F)F` [SODIUM HEXAFLUOROSILICATE], greater than 46 µM; that for `O=C(O)CCCc1ccccc1` [SODIUM PHENYLBUTYRATE], greater than 46 µM.
The result for `CCCCC(CC)CCC(CC(C)C)OS(=O)(=O)[O-]` (configuration not stated) [SODIUM TETRADECYL SULFATE] reads greater than 46 µM.
To `O=P(O)(O)OP(=O)(O)OP(=O)(O)O.[NaH]` [SODIUM TRIPOLYPHOSPHATE] belongs greater than 46 µM.
Regarding `O=C(O[C@H]1CN2CCC1CC2)N1CCc2ccccc2[C@@H]1c1ccccc1` [SOLIFENACIN SUCCINATE], the “IC50 of cell viability” value is greater than 46 µM.
To `CC(N)C(=O)NCC(=O)NC1CSSCC(C(=O)O)NC(=O)C(CO)NC(=O)C(C(C)O)NC(=O)C(Cc2ccccc2)NC(=O)C(C(C)O)NC(=O)C(CCCCN)NC(=O)C(Cc2c[nH]c3ccccc23)NC(=O)C(Cc2ccccc2)NC(=O)C(Cc2ccccc2)NC(=O)C(CC(N)=O)NC(=O)C(CCCCN)NC1=O` (configuration not stated) [SOMATOSTATIN] belongs greater than 46 µM; to `CCCCCCCCCCCCCCCC(=O)OC[C@H](O)[C@H]1OC[C@@H](O)[C@@H]1O` [SORBITAN MONOPALMITATE], greater than 46 µM; to `CCCCCCCCCCCC(=O)OCC(O)C1OCC(O)C1O` (configuration not stated) [SORBITANI LAURAS], greater than 46 µM.
To `OCC(O)C(O)C(O)C(O)CO` (configuration not stated) [SORBITOL] belongs greater than 46 µM; to `CC(C)NCC(O)c1ccc(N[S+](C)(=O)[O-])cc1` (configuration not stated) [SOTALOL], greater than 46 µM; to `CC(=O)N[C@@H](CC(=O)O)C(=O)N[C@@H](CCC(=O)O)C(=O)O` [SPAGLUMIC ACID], greater than 46 µM.
To `CC1CN(c2c(F)c(N)c3c(=O)c(C(=O)O)cn(C4CC4)c3c2F)CC(C)N1` (configuration not stated) [SPARFLOXACIN] belongs greater than 46 µM; to `O=C(CCCN1CCC2(CC1)C(=O)NCN2c1ccccc1)c1ccc(F)cc1` [SPIPERONE], greater than 46 µM; to `O=C1NCN(c2ccccc2)C12CCN(CC1COc3ccccc3O1)CC2` (configuration not stated) [SPIROXATRINE], greater than 46 µM.
Regarding `CC(C)=CCC/C(C)=C/CC/C(C)=C/CC/C=C(\C)CC/C=C(\C)CCC=C(C)C` [SQUALENE], the “IC50 of cell viability” value is greater than 46 µM.
To `CCCCCCCCCCCCCCCCCCO` [STEARLY ALCOHOL] belongs greater than 46 µM; to `N#Cc1c(N(CC(=O)[O-])CC(=O)[O-])sc(C(=O)[O-])c1CC(=O)[O-].O.O.O.O.O.O.O.[Sr+2].[Sr+2]` [STRONTIUM RANELATE], greater than 46 µM; to `ClCc1ccccc1.O=C1CC2OCC=C3CN4CCC56c7ccccc7N1C5[C@H]2[C@H]3C[C@H]46` (some centres not stated) [STRYCHNINE SULFATE], greater than 46 µM.
As for `[H][C@]12C[C@@]3([H])C4=CCO[C@@H]5CC(=O)N6C([C@@]35[H])[C@]1(CC[N@@]2C4)C7=C6C=CC=C7` (some centres not stated) [STRYCHNINE], the “IC50 of cell viability” value is greater than 46 µM.
In the case of `C(=C\c1ccncc1)/c1ccccc1` [STYRYLPYRIDINIUM CHLORIDE], the “IC50 of cell viability” value is greater than 46 µM.
With `O=C(O)CCC(=O)O` [SUCCINIC ACID], the “IC50 of cell viability” value is greater than 46 µM.
For the compound `CC1(C)SC2C(NC(=O)C(c3ccccc3)S(=O)(=O)[O-])C(=O)N2C1C(=O)[O-]` (configuration not stated) [SULBENICILLIN DISODIUM], the “IC50 of cell viability” value is greater than 46 µM.
`Cc1nc(N[S+](=O)([O-])c2ccc(N)cc2)nc(C)c1Br` [SULFABROMOMETHAZINE SODIUM]: the “IC50 of cell viability” value was greater than 46 µM.
Take `NC(=O)NS(=O)(=O)c1ccc(N)cc1` [SULFACARBAMIDUM]: the “IC50 of cell viability” value is greater than 46 µM.
The result for `COc1cc(N[S+](=O)([O-])c2ccc(N)cc2)nc(C)n1` [SULFAMETOMIDINE] reads greater than 46 µM.
To `CC(=O)Nc1ccc([S+](=O)([O-])Nc2ccc([N+](=O)[O-])cc2)cc1` [SULFANITRAN] belongs greater than 46 µM; to `N[S+](=O)([O-])c1ccc(NC(=O)CCC(=O)O)cc1` [SULFASUCCINAMIDUM], greater than 46 µM.
To `NC(=S)N[S+](=O)([O-])c1ccc(N)cc1` [SULFATOLAMIDE] belongs greater than 46 µM; to `O=C1OC(c2ccc(O)c([S+](=O)([O-])O)c2)(c2ccc(O)c([S+](=O)([O-])O)c2)c2c(Br)c(Br)c(Br)c(Br)c21` (configuration not stated) [SULFOBROMOPHTHALEIN SODIUM], greater than 46 µM; to `CCC(C)(S(=O)(=O)CC)S(=O)(=O)CC` [SULFONETHYLMETHANE], greater than 46 µM.
For the compound `CCS(=O)(=O)C(C)(C)S(=O)(=O)CC` [SULFONMETHANE], the “IC50 of cell viability” value is greater than 46 µM.
To `COc1cc([S+](C)[O-])ccc1-c1nc2ncccc2[nH]1` (configuration not stated) [SULMAZOLE] belongs greater than 46 µM; to `CCCCCCCCNC(C)C(O)c1ccc(SC(C)C)cc1` (configuration not stated) [SULOCTIDIL], greater than 46 µM.
In the case of `CN[S+](=O)([O-])Cc1ccc2[nH]cc(CCN(C)C)c2c1` [SUMATRIPTAN], the “IC50 of cell viability” value was greater than 46 µM.
Consider `CCOCC(O)COc1ccc(NC(=O)CC[S+](C)C)cc1` (configuration not stated) [SUPLATAST TOSILATE], for which the “IC50 of cell viability” value was greater than 46 µM.
Regarding `Cc1ccc(C(=O)Nc2ccc(S(=O)(=O)O)c3cc(S(=O)(=O)O)cc(S(=O)(=O)O)c23)cc1NC(=O)c1cccc(NC(=O)Nc2cccc(C(=O)Nc3cc(C(=O)Nc4ccc(S(=O)(=O)O)c5cc(S(=O)(=O)O)cc(S(=O)(=O)O)c45)ccc3C)c2)c1` [SURAMIN], the “IC50 of cell viability” value is greater than 46 µM.
Take `CCON=O` [SWEET SPIRITS OF NITRE]: the “IC50 of cell viability” value is greater than 46 µM.
To `CC(=O)NC(=O)c1ccccc1O` [Salacetamida] belongs greater than 46 µM; to `O=C(O)c1cc(/N=N/c2ccc([S+](=O)([O-])Nc3ccccn3)cc2)ccc1O` [Salicylazosulfapyridine], greater than 46 µM; to `O=C(O)c1ccccc1O` [Salicylic acid], greater than 46 µM.
